Test results as given in US20100209406A1, “BACILLUS STRAINS AND METHODS FOR REDUCING E. COLI DISEASE AND ENHANCING PERFORMANCE” (priority 2004, published 2010).
Residues, ends and D or L forms follow the SMILES beside them.

Legend:
Test in all cases: Antibiotic sensitivity assay (antibiotic discs)
Type in all cases: cell-based, Bacillus subtilis
[1] = test system: Bacillus strain 15A-P4; conditions: antibiotic disc on TSA with 1.0% 15A-P4, 32° C. overnight
Experimental: (§1) After the plates were solidified, the antibiotic discs were placed onto the agar surface. The plates were incubated at 32° C. overnight. Inhibitory zones were measured in millimeters.

[2] = test system: Bacillus strain 22C-P1; conditions: antibiotic disc on TSA with 1.0% 22C-P1, 32° C. overnight
Experimental: as §1

[3] = test system: Bacillus strain 3A-P4; conditions: antibiotic disc on TSA with 1.0% 3A-P4, 32° C. overnight
Experimental: as §1

## CC[C@H](C)[C@H](N)C1=N[C@H](C(=O)N[C@@H](CC(C)C)C(=O)N[C@H](CCC(=O)O)C(=O)N[C@H](C(=O)N[C@H]2CCCCNC(=O)[C@H](CC(N)=O)NC(=O)[C@@H](CC(=O)O)NC(=O)[C@H](Cc3cnc[nH]3)NC(=O)[C@@H](Cc3ccccc3)NC(=O)[C@H]([C@@H](C)CC)NC(=O)[C@@H](CCCN)NC2=O)[C@@H](C)CC)CS1 [Bacitracin] (HELM PEPTIDE1{[CC[C@H](C)[C@H](N)C1=N[C@H](C(=O)[*:2])CS1].L.[dE].I.K.[NCCC[C@@H](N[*:1])C(=O)[*:2]].I.[dF].H.[dD].N}$PEPTIDE1,PEPTIDE1,5:R3-11:R2$$$V2.0)
[1]
  Inhibitory Zones: 8 Millimeters
[2]
  Inhibitory Zones: 8 Millimeters
[3]
  Inhibitory Zones: 8 Millimeters

## CCC[C@@H]1C[C@@H](C(=O)N[C@@H]([C@H]2O[C@H](SC)[C@H](O)[C@@H](O)[C@H]2O)[C@@H](C)O)N(C)C1 [Lincomycin]
[1]
  Inhibitory Zones: 9 Millimeters
[2]
  Inhibitory Zones: 8 Millimeters
[3]
  Inhibitory Zones: 8 Millimeters

## CN(C)[C@@H]1C(=O)C(C(N)=O)=C(O)[C@@]2(O)C(=O)C3=C(O)c4c(O)cccc4[C@@](C)(O)[C@H]3[C@H](O)[C@@H]12 [Oxytetracycxyline]
[1]
  Inhibitory Zones: 14 Millimeters
[2]
  Inhibitory Zones: 24 Millimeters
[3]
  Inhibitory Zones: 24 Millimeters

## CN(C)[C@@H]1C(O)=C(C(N)=O)C(=O)[C@@]2(O)C(O)=C3C(=O)c4c(O)cccc4[C@@](C)(O)[C@H]3C[C@@H]12 [Tetracycline]
[1]
  Inhibitory Zones: 14 Millimeters
[2]
  Inhibitory Zones: 21 Millimeters
[3]
  Inhibitory Zones: 26 Millimeters

## Gentamycin
[1]
  Inhibitory Zones: 22 Millimeters
[2]
  Inhibitory Zones: 22 Millimeters
[3]
  Inhibitory Zones: 26 Millimeters

## Neomycin
[1]
  Inhibitory Zones: 12 Millimeters
[2]
  Inhibitory Zones: 12 Millimeters
[3]
  Inhibitory Zones: 16 Millimeters

## Penicillin
[1]
  Inhibitory Zones: 11 Millimeters
[2]
  Inhibitory Zones: 13 Millimeters
[3]
  Inhibitory Zones: 0 Millimeters
